Measurements taken from patent US10610586B2, “Compositions for antigen-specific induction of tolerance” (STALLERGENES, priority 2005, dated 2020).

How the values were obtained:
[1] = test system: BALB/c mice sensitized with OVA; experiment: Sublingual tolerization in a therapeutic model of type I allergy: airway responsiveness by whole body plethysmography; assay type: in vivo; settings: adjuvant given sublingually together with OVA 500 μg twice a week for 2 months to OVA-sensitized mice; methacholine 50 mg/ml; compared to PBS-treated mice or OVA alone
Procedure: Sensitization was performed by two intraperitoneal (i.p.) injections in 14 days interval with 10 μg OVA adsorbed to 2 mg Al(OH)3 in a total volume of 100 μl. The sensitization was followed by a 20 min aerosol challenge with 1% w/v OVA on 5 consecutive days with an aerosol delivery system (Buxco Europe; Ltd, UK). Control animals were sham treated with sterile PBS. For tolerance induction in a therapeutic model, sensitized mice were sublingually treated with OVA or OVA plus adjuvant every week, twice a week, during 2 months at a concentration of 500 μg (20 μl). Control mice were sensitized with OVA followed by sham tolerization with PBS. Measurements of airway responsiveness were performed by whole body plethysmography (Buxco Europe; Ltd, UK), 48 h after the last challenge for sensitisation or tolerization. Airflow signals were recorded in response to aerosolized methacholine (50 mg/ml), 1 minute, four times. The higher value of Penh (enhanced pause) was taken into account for the calculation of the Penh index (Penh index=Penh measured/Penh PBS).

human T cells = experiment: Gene expression by human T cells after coculture with adjuvant-treated DC (quantitative PCR); assay type: cell-based; settings: human DC treated with adjuvant 24 h, cultured with allogenic naive CD4+ T cells, mRNA 24 h to 5 days later; only above 2-fold increase considered significant
Procedure: Dendritic cells DC were treated with candidate adjuvants for 24 h, washed and cultured with purified allogenic naïve CD4+ T cells. mRNAs were extracted 24 h to 5 days later and gene expression was assessed by quantitative PCR with primers specific for the tested genes. Only data above 2-fold increase were considered as significant.
A human in vitro model, consisting of a coculture of human pretreated DC with allogenic T cells, has been used to select IL-10-inducing adjuvants. Briefly, human DC were treated with adjuvants. After 24 h, the DC were washed and cultured with allogenic naive CD4+ T cells. After 24 h to 5 days, gene expression in human T cells was assessed by quantitative PCR.

TGF-β = TGF-β production in supernatant of spleen cell cultures after sublingual tolerization; assay type: in vivo; settings: OVA-sensitized mice treated sublingually with OVA plus adjuvant; compared to PBS-treated mice or OVA alone
Procedure: For tolerance induction in a therapeutic model, sensitized mice were sublingually treated with OVA or OVA plus adjuvant every week, twice a week, during 2 months at a concentration of 500 μg (20 μl). Control mice were sensitized with OVA followed by sham tolerization with PBS. Dosage of TGF-β from supernatants of spleen cell cultures was performed with an ELISA kit (R&D systems). Mice were killed by cervical dislocation. Spleens cells were isolated and plated in triplicate in 96-well flat-bottomed ELISPOT plates (Millipore, Massachussets) at densities of 2×10^5 cells per well. Different conditions were used: medium alone, OVA (100μg/ml) and PMA (phorbol myristyl acetate) (50 ng/ml, Sigma)/ionomycin (500 ng/ml, Sigma) which was used as positive control. Spot forming cells (SFCs) were monitored for IFN-γ, IL-5 and IL10. Elispot kits were from R&D systems Europe.

Lactobacillus plantarum [L. plantarum]
airway responsiveness (Penh in response to methacholine) [1]: reduction of airway responsiveness | Gene expression by T cells: IL10 (human T cells): induce IL10 gene expression | TGF-β production in supernatant of spleen cell cultures (TGF-β): enhanced
